Experiment [1] has as its system enzyme encoded by ClbP gene. The experiment is described as follows: Detection of ClbP enzyme / colibactin-producing E. coli in lyophilized fecal samples by fluorescent probe (Example 3). Format: biochemical, Escherichia coli. The note with it: probe 20 μM, lyophilized human feces suspended in milliQ water, 37° C., 24 hours or more, after extraction and unextracted. The protocol:
The feces samples (obtained from different 4 human subjects) lyophilized were each scooped 10 times by a spoon (about 40 mg) and suspended in milliQ water (200 μl). To the suspension, the 20 mM DMSO solution of probe 1 was added so as to obtain a final concentration of 20 μM (DMSO final concentration 0.1%). Thereafter, the suspension was shaken at 37° C. and 100 rpm for 24 hours or more. After the reaction, the reaction solution (200 μLS) was taken and centrifuged. The supernatant (200 μL) was directly subjected to detection performed at λex380 mm/λem460 mm (unextracted). The reaction solution (200 μL) was newly taken, sufficiently suspended by adding ethyl acetate (500 μL) and centrifuged. The ethyl acetate layer (450 μL) of the supernatant was collected and concentrated. To the concentrate, milliQ water (200 μL) was added. The mixture was sufficiently suspended and centrifuged. The supernatant (200 μL) was subjected to detection performed at λex380 mm/λem460 mm (after extraction). In FIG. 2, the detection results of 4 fecal samples are shown separately by “feces is present_1” to “feces is present_4”, respectively.

Experiment [2] relates to colibactin-producing Escherichia coli. Nature of the experiment: Assay using cultured Escherichia coli, colibactin-producing versus non-producing strains (Example 4). The note with it: probe 20 μM in LB medium, 37° C., 24 hours or more, particularly after extraction; producers 5263, 5491, Nissle vs non-producers 1246, 1649T. It is filed as cell-based. The procedure:
As Escherichia coli not producing colibactin, 1246 strain and 1649T strain were used. As the colibactin-producing Escherichia coli, 5263 strain, 5491 strain and Nissle strain were used.
Escherichia coli were cultured overnight and seeded (20 μL) in LB medium (2 to 4 mL) and further a 20 mM DMSO solution of probe 1 was added thereto so as to obtain a final concentration of 20 μM (DMSO final concentration: 0.1%), and cultured at 37° C. and 100 rpm for 24 hours or more while shaking. After reaction, the reaction solution (200 μL) was taken and centrifuged. The supernatant (200 μL) was directly subjected to detection performed at λex 380 mm/λem 460 mm (unextracted). The reaction solution (200 μL) was newly taken and ethyl acetate (500 μL) was added thereto. After sufficiently suspended, the suspension was centrifuged. The ethyl acetate layer (450 μL) of the supernatant was recovered and concentrated. To the concentrate, milliQ water (200 μL) was added. The mixture was sufficiently suspended and centrifuged. The supernatant (200 μL) was subjected to detection (after extraction) performed at λex 380 mm/λem 460 mm.

The subject of experiment [3] is colibactin positive bacterium. Nature of the experiment: Detection of colibactin positive bacterium using cultured fecal samples (Example 6). The following applies: colonies from human fecal samples, LB with 100 μM probe, 24 hours, λex 380 mm/λem 460 mm, compared with PCR. It is filed as cell-based, Escherichia coli. The procedure:
Fecal samples obtained from human subjects were dissolved in water, applied to a plate comprising a MacConkey medium and cultured at 37° C. for 12 hours. The resultant red-purple colony was picked up, inoculated in LB liquid medium comprising 100 μM probe I and cultured for 24 hours. Fluorescence (λex 380 mm/λem 460 mm) was measured by a plate reader. These samples were checked for the presence or absence of a colibactin positive bacterium by a PCR method in the same manner as in Example 5 and the correlation with the fluorescence intensity generated from probe I was examined.

For experiment [4], the system named is colibactin positive bacterium. The experiment is described as follows: Detection of colibactin positive bacterium among Escherichia coli separated from colorectal tissue samples (Example 5). It is filed as cell-based. The note with it: 100 μM probe in LB, 37° C., 24 hours, threshold 100; 100 PCR-positive and 100 PCR-negative samples. The text has this:
In this Example, detection of a colibactin positive bacterium was tried by applying probe I to Escherichia coli bacteria separated from colon tissue samples (n=100) in which colibactin biosynthetic genes had been detected by PCR methods and colon tissue samples (n=100) in which colibactin biosynthetic genes had not been detected.
Escherichia coli bacteria were separated by homogenizing a human colorectal tissue sample with physiological saline and smearing the homogenized sample onto a MacConkey plate medium, and culturing it. […] Based on the presence or absence of an amplified fragment as an index, a colibactin positive bacterium or not was evaluated.
To evaluate the sensitivity and accuracy for detecting a colibactin positive bacterium by probe I, 100 Escherichia coli bacterium samples were prepared by separating Escherichia coli bacterium from colon tissue samples in which a colibactin positive bacterium was detected by the above PCR method; and 100 Escherichia coli bacterium samples separated were prepared by separating Escherichia coli bacterium from colon tissue samples in which a colibactin positive bacterium was not detected by the above PCR method. […] Measurement at λex 380 mm/λem 460 mm was carried out by a plate reader. The difference in fluorescence intensity between assay A and assay B (background) was obtained and the threshold was determined as 100. […]

Where a SMILES comes first, the peptide text is derived from it. [ ]: non-standard residue; d: D form. The star is where a group is joined. Myristoyl = CCCCCCCCCCCCCC(=O)*; AMC = Cc1cc(=O)oc2cc(N*)ccc12

For `CCCCCCCCCCCCCC(=O)N[C@H](CC(N)=O)C(=O)N[C@@H](C)C(=O)Nc1ccc2c(C)cc(=O)oc2c1` [probe 2] (Myristoyl-[dN]-Ala-{AMC}), the “fluorescence of the probe on contact with feces (ClbP dependent cleavage to AMC)” value in experiment [1] is “same results”.
As for `CCCCCCCCCCCCCC(=O)NC(CC(N)=O)C(=O)Nc1ccc2c(C)cc(=O)oc2c1` (stereo not drawn) [probe 1], in experiment [2], the “detection of colibactin-producing Escherichia coli based on the fluorescence intensity of the probe” value was “colibactin-producing Escherichia coli can be detected”. In experiment [1], the “fluorescence of the probe on contact with feces (ClbP dependent cleavage to AMC)” value is reported as “fluorescence was regained”. Also, in experiment [3], the “detection of colibactin positive bacterium present in fecal samples” value is “highly sensitively and accurately detected”. Also, in experiment [4], the “accuracy of detecting a colibactin positive bacterium” value is 100% and the “false positive rate (a rate determining a negative bacterium as a positive bacterium)” value is recorded as “less than 1%”.

Values taken from patent US11667945B2, “Detection method and detection probe for colibactin and colibactin-producing bacteria” (priority 2017, dated 2023).
